The source made the active and inactive calls. The calls are words filed in the database; no cut-off is given here.
Columns and labels:
[1] = target: Activin receptor type-2B (Homo sapiens) (UniProt Q13705); assay: Inhibition of ACVR2B (unknown origin) at 10 uM by Ambit Kinomescan binding assay
[2] = target: Tyrosine-protein kinase Mer (Homo sapiens) (UniProt Q12866); assay: Inhibition of MERTK (unknown origin) at 10 uM by Ambit Kinomescan binding assay
[3] = target: Cyclin-dependent kinase 11B (Homo sapiens) (UniProt P21127); assay: Inhibition of CDK11 (unknown origin) at 10 uM by Ambit Kinomescan binding assay relative to control; values are per cent of control
Sequence of Cyclin-dependent kinase 11B (Homo sapiens) (P21127 whole entry): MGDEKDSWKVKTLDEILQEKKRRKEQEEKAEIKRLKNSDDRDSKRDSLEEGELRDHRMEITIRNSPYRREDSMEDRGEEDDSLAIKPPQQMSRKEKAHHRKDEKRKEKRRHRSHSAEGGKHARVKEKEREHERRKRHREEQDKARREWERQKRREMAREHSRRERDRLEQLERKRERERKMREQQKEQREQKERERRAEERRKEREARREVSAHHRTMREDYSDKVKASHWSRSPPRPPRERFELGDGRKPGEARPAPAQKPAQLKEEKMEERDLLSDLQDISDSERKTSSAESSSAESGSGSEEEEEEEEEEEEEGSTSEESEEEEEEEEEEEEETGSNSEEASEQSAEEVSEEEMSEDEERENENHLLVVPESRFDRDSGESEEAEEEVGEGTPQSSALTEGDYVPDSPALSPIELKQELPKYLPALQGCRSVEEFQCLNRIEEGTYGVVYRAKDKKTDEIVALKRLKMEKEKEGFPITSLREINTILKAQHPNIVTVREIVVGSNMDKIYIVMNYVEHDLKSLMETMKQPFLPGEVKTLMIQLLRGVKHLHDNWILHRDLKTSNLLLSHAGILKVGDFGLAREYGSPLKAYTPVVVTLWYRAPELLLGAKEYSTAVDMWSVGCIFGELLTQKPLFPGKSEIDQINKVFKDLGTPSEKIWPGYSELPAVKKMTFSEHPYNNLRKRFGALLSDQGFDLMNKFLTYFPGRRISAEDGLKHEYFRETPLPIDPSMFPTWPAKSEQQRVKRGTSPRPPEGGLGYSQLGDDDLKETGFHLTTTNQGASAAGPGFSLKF

[4] = target: eIF-2-alpha kinase GCN2 (Homo sapiens) (UniProt Q9P2K8); assay: Inhibition of GCN2 K2 labeling site in human Huh-7 cells at 10 uM by KiNativ Profiling analysis relative to control; assay type: cell-based
[5] = target: Dual specificity mitogen-activated protein kinase kinase 1 (Homo sapiens) (UniProt Q02750); assay: Inhibition of MAP2K1 Lys1 labeling site in human A-375 cells at 5 uM by KiNativ Profiling analysis relative to control; assay type: cell-based
[6] = target: TRAF2 and NCK-interacting protein kinase (Homo sapiens) (UniProt Q9UKE5); assay: Inhibition of TNIK K1 labeling site in human Huh-7 cells at 1 uM by KiNativ Profiling analysis relative to control; assay type: cell-based
Sequence of TRAF2 and NCK-interacting protein kinase (Homo sapiens) (Q9UKE5 whole entry, looked up): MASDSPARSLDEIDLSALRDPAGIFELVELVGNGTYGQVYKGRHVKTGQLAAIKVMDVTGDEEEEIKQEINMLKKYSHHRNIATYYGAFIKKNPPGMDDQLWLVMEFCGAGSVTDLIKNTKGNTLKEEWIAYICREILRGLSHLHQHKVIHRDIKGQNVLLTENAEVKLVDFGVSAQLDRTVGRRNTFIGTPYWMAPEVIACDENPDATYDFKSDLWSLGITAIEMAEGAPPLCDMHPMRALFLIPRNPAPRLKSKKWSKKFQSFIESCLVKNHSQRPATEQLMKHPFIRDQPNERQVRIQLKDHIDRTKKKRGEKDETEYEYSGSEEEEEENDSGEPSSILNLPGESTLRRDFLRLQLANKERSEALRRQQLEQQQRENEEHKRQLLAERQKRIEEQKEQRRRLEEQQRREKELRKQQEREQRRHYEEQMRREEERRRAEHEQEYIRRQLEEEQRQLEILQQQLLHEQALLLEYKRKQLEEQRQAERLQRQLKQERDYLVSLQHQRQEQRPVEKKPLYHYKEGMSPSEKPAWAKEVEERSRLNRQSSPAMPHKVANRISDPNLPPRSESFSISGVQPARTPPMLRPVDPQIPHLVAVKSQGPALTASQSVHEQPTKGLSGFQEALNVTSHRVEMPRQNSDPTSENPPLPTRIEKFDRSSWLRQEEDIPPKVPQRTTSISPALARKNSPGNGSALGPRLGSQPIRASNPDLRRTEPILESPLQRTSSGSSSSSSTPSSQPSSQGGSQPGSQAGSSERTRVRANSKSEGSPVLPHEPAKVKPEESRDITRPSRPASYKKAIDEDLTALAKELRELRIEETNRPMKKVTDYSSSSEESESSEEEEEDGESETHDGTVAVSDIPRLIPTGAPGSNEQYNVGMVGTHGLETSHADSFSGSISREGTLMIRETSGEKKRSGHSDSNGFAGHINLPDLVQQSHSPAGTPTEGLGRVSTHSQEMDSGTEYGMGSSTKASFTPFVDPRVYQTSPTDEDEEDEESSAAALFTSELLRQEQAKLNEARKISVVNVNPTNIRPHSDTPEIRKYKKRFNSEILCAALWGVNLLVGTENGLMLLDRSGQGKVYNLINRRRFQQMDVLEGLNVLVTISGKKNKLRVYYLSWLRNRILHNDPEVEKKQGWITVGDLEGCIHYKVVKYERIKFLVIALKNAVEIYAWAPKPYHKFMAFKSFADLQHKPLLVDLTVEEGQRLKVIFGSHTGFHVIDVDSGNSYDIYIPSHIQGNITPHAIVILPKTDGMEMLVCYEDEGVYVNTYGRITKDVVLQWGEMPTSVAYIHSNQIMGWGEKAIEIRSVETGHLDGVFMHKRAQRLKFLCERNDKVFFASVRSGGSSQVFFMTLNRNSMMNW

[7] = target: Maternal embryonic leucine zipper kinase (Homo sapiens) (UniProt Q14680); assay: Inhibition of MELK Lys2 labeling site in human A-375 cells at 0.05 uM by KiNativ Profiling analysis relative to control; assay type: cell-based
Sequence of Maternal embryonic leucine zipper kinase (Homo sapiens) (Q14680 whole entry, looked up): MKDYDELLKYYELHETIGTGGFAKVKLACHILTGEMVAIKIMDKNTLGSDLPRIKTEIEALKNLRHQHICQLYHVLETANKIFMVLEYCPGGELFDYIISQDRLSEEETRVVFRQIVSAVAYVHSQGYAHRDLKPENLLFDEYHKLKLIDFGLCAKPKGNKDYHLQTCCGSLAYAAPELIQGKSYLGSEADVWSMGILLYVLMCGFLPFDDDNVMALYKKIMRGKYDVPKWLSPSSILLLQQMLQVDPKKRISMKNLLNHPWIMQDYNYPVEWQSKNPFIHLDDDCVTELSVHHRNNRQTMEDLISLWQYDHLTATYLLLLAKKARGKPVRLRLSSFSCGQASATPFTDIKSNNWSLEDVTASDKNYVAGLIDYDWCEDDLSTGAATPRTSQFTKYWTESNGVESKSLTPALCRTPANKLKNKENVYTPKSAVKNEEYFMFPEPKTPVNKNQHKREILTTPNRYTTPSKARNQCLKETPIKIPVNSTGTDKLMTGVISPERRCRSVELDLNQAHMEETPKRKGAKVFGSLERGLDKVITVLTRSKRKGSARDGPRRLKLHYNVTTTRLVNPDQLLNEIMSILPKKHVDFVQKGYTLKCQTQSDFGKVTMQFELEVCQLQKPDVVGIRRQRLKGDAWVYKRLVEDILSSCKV

[8] = target: Cyclin-dependent kinase 8 (Homo sapiens) (UniProt P49336); assay: Inhibition of CDK8 Lys2 labeling site in human Huh-7 cell lysate at 1 uM by KiNativ Profiling analysis relative to control; assay type: subcellular
Sequence of Cyclin-dependent kinase 8 (Homo sapiens) (P49336 whole entry): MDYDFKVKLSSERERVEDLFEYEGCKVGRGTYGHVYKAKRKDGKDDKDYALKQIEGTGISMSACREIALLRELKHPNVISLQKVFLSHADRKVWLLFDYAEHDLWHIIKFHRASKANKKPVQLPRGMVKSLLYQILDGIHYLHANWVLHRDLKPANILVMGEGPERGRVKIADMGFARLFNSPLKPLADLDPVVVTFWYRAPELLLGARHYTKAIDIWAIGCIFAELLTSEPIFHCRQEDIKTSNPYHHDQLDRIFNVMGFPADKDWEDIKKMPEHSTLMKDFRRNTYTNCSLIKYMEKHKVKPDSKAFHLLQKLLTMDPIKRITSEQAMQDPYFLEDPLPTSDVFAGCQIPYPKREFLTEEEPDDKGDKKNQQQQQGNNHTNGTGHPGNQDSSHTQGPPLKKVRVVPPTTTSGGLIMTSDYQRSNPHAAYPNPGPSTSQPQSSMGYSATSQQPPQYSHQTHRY

[9] = target: Serine/threonine-protein kinase 26 (Homo sapiens) (UniProt Q9P289); assay: Inhibition of MST4 Lys1 labeling site in human Huh-7 cells at 1 uM by KiNativ Profiling analysis relative to control; assay type: cell-based
[10] = Inhibition of p70S6K Lys2 labeling site in human Huh-7 cell lysate at 1 uM by KiNativ Profiling analysis relative to control; details: condition cancer
[11] = target: Serine/threonine-protein kinase 10 (Homo sapiens) (UniProt O94804); assay: Inhibition of LOK Lys2 labeling site harbouring DLKAGNVLMTLEGDIR in human Huh-7 cell lysate at 1 uM by KiNativ Profiling analysis relative to control; assay type: subcellular
[12] = target: T1, Phosphatidylinositol 5-phosphate 4-kinase type-2 gamma (Homo sapiens) (UniProt Q8TBX8); assay: Inhibition of PIP4K2C ATP labeling site harbouring VKELPTLKDMDFLNK in human Huh-7 cells at 1 uM by KiNativ Profiling analysis relative to control; assay type: cell-based
T1 sequence (whole entry): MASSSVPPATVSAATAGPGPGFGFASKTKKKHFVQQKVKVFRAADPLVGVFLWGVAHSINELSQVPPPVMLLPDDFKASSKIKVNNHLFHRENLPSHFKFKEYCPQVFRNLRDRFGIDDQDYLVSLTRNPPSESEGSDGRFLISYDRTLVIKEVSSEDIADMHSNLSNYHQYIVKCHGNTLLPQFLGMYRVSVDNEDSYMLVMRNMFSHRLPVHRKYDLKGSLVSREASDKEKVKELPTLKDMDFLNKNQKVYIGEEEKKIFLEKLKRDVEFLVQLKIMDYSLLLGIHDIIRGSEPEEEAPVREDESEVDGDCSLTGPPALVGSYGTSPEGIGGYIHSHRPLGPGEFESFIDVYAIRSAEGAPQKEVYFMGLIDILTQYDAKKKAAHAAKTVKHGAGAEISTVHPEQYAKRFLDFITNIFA

[13] = target: Serine/threonine-protein kinase 38 (Homo sapiens) (UniProt Q15208); assay: Inhibition of NDR1 Lys2 labeling site in human A-375 cells at 5 uM by KiNativ Profiling analysis relative to control; assay type: cell-based
[14] = target: Serine/threonine-protein kinase MARK2 (Homo sapiens) (UniProt Q7KZI7); assay: Inhibition of MARK2 (unknown origin) at 1 uM by Ambit Kinomescan binding assay relative to control
[15] = Inhibition of p70S6K Lys2 labeling site in human A-375 cells at 0.5 uM by KiNativ Profiling analysis relative to control; details: condition cancer
[16] = target: STE20-like serine/threonine-protein kinase (Homo sapiens) (UniProt Q9H2G2); assay: Inhibition of SLK Lys1 labeling site in human A-375 cells at 0.5 uM by KiNativ Profiling analysis relative to control; assay type: cell-based
Sequence of STE20-like serine/threonine-protein kinase (Homo sapiens) (Q9H2G2 whole entry, looked up): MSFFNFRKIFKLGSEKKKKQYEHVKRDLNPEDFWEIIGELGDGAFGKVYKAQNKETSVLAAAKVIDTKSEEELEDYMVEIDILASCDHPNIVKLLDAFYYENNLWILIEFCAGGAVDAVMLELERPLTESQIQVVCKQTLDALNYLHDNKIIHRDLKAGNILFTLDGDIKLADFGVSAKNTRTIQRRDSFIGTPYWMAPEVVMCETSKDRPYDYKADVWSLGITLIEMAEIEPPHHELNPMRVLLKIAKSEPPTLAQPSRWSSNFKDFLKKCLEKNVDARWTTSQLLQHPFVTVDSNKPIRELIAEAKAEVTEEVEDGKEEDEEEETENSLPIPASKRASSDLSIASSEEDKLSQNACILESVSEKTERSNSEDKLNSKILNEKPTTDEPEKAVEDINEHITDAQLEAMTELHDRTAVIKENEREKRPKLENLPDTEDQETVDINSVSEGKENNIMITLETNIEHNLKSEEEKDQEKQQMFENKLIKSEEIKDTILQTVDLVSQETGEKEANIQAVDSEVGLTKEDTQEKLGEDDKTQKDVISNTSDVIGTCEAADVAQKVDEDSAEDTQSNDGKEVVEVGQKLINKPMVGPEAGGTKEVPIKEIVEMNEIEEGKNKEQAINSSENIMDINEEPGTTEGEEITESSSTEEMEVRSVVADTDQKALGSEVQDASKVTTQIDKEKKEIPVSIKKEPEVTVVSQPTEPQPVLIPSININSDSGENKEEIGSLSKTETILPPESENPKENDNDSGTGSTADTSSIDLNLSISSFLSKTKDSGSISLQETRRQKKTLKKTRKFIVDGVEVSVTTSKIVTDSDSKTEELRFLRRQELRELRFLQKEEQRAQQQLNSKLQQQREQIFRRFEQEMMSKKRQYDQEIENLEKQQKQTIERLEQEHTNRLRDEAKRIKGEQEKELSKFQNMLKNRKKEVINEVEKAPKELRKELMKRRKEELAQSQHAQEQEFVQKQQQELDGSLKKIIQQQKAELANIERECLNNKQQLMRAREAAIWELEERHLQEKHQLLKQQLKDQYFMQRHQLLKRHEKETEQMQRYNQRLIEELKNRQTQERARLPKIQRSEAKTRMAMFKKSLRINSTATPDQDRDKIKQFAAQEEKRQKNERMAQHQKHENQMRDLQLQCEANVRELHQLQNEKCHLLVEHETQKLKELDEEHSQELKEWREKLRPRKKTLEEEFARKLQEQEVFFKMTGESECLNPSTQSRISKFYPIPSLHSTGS

[17] = target: T2, Serine/threonine-protein kinase 3 (Homo sapiens) (UniProt Q13188); assay: Inhibition of MST2 Lys1 labeling site in human A-375 cells at 0.5 uM by KiNativ Profiling analysis relative to control; assay type: cell-based
T2 sequence (whole entry): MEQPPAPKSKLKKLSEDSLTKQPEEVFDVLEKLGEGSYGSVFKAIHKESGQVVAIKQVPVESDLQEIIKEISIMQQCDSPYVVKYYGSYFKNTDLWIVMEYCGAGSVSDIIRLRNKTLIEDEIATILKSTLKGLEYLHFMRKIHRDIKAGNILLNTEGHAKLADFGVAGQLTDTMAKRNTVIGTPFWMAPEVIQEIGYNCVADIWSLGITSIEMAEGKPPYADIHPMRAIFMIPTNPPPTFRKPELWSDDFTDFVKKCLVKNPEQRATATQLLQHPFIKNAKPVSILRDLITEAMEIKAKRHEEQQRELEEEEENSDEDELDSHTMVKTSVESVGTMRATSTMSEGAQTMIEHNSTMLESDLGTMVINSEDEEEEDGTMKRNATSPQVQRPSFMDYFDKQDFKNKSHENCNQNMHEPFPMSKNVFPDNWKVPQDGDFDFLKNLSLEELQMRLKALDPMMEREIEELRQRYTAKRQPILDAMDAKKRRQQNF

[18] = target: Mitogen-activated protein kinase 14 (Homo sapiens, UniProt Q16539); assay: Inhibition of p38 alpha in human A-375 cells at 0.05 uM by KiNativ Profiling analysis relative to control; assay type: cell-based
Sequence of Mitogen-activated protein kinase 14 (Q16539 whole entry): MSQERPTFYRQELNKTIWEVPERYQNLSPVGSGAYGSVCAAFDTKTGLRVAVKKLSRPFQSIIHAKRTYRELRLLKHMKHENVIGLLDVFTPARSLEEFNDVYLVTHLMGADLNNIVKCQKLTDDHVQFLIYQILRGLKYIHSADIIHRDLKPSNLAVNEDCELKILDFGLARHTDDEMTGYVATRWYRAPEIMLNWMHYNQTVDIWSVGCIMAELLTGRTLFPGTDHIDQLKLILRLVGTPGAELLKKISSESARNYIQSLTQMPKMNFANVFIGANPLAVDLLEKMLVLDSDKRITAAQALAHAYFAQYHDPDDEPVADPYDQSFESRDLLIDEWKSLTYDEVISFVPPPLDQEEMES

[19] = target: Phosphatidylinositol 4-kinase beta (Homo sapiens) (UniProt Q9UBF8); assay: Inhibition of PI4KB ATP labeling site harbouring VPHTQAVVLNSKDK in human A-375 cells at 0.05 uM by KiNativ Profiling analysis relative to control; assay type: cell-based

CCN1CCN(Cc2ccc(NC(=O)c3ccc(C)c(Oc4ccnc5[nH]ccc45)c3)cc2C(F)(F)F)CC1
inhibition [1]: inactive
inhibition [2]: inactive
% of control [3]: 0.1%
inhibition [4]: 14.7%
inhibition [5]: 1.3%
inhibition [6]: 35.6%
inhibition [7]: 4.1%

CNc1cc(Oc2cc(C(=O)Nc3cc(N4CCN(C)CC4)cc(C(F)(F)F)c3)ccc2C)ncn1
inhibition [8]: -8.6%
inhibition [9]: 41.9%
inhibition at 1 µM [10]: 4.9%
inhibition [11]: -8.9%
inhibition [12]: 5.4%

CCN1CCN(Cc2ccc(NC(=O)c3ccc(C)c(/C=C/c4cnc5[nH]ccc5c4OC)c3)cc2C(F)(F)F)CC1
inhibition [13]: 25.3%
inhibition [14]: 59%
inhibition at 0.5 µM [15]: -32.9%
inhibition [16]: 6.8%
inhibition [17]: 8.2%
inhibition [18]: 73.1%
inhibition [19]: -10%

From ChEMBL document CHEMBL5696442, “Discovery of type II inhibitors of TGFβ-activated kinase 1 (TAK1) and mitogen-activated protein kinase kinase kinase kinase 2 (MAP4K2)” (J Med Chem, 2015)
